The text below walks through data of paper PMC5970223, “Multiplexed profiling of GPCR activities by combining split TEV assays and EXT-based barcoded readouts” (Scientific Reports, 2018).

Experiment [1] has as its target T1, serotonin receptor HTR2A (Homo sapiens, UniProt P28223). The experiment can be described thus: multiplexed GPCRprofiler assay in U2OS cells. The experiment is classed as cell-based. The following applies: for agonistic effect on HTR2A (drug alone): drug only for 6 h, subtle = less than 2-fold change, three consecutive increases. The method, then:
(§1) Two hours after transfection, all cell populations were pooled, mixed, and evenly divided into fractions for plating onto assay dishes (Fig. 2a). The cells were cultured and stimulated under identical conditions for agonist or antagonist assays as initially described for GPCR split TEV assays (Supplementary Fig. S1a,b).
(§2) After cell lysis, RNA from each sample was isolated and converted into cDNA by reverse transcription. […] This permits the mixing of all samples and sequencing of all pooled samples using a single sequencing run (Fig. 2b). The sample barcodes enable tracing experimental conditions, whereas the read counts per EXTs serve as quantitative measurements for the corresponding GPCRs. […] From the normalized data the fold changes of receptor activities were finally calculated.
(§3) In addition to the stimulation with the single compounds, a compound-mixture (mix) of all agonists was tested. The first set of experiments were carried out in the human osteosarcoma cell line U2OS. We normalized the raw sequencing data to total read numbers of sample codes, followed by averaging reads of internal and external calibrator EXTs as described above (Supplementary Fig. S4).
(§4) Next, we applied the multiplexed GPCRprofiler to measure the effects of GPCR targeting drugs on receptor activity. […] In addition, binding affinities to α-adrenergic receptors and the histamine receptor HRH1 were described for paliperidone using biochemical assays[38]–[40]. […] To address any changes in GPCR activities caused by the selected drugs, receptors were stimulated for 6 h applying two different parameters. First, to monitor agonistic effects, GPCRs were treated with the drugs only (Supplementary Fig. S1a). Second, to measure antagonistic effects, GPCRs were treated both with the drugs and the corresponding agonist (Supplementary Fig. S1b). This experimental design therefore allows to identify potential antagonistic effects of agonists and vice versa. For a profiling experiment, drugs were applied at increasing concentrations. […] Alternatively, a drug-induced inhibition of agonist-mediated GPCR activation specifies the drug as antagonist.
Cells were resuspended in culture medium without antibiotics at a density of 1.5 × 10^6 cells/ml (U2OS) or 3 × 10^6 cells/ml (PC12). […] Transfection-mixes were added to cell suspensions and incubated for 2 h at 37 °C without shaking. Suspensions were centrifuged for 5 min at 900 rpm and resuspended in culture medium to remove transfection reagents.

A further experiment concerns T2, histamine receptor HRH1.
T2 construct: ORFs of GPCRs were PCR amplified; expressed in transfected cells; host or cells: U2OS
The experiment can be described thus: multiplexed GPCRprofiler assay in U2OS cells. The experiment is classed as cell-based, human. The conditions noted are these: for drug-induced effect, GPCRprofiler: Supplementary Table S4, HRH1; for antagonistic effect on HRH1: U2OS cells, drug 1 h before agonist-mix (1 µM each). How it is done: as §1, §2, §4
(§5) Cells were resuspended in culture medium without antibiotics at a density of 1.5 × 10^6 cells/ml (U2OS) or 3 × 10^6 cells/ml (PC12). […] Transfection-mixes were added to cell suspensions and incubated for 2 h at 37 °C without shaking. Suspensions were centrifuged for 5 min at 900 rpm and resuspended in culture medium to remove transfection reagents. All transfection samples were combined within one pool and plated on multiple wells of 6-well plates and incubated for 24 h at 37 °C. Afterwards, cells were starved for 17–18 h and then treated with compounds for 6 h in duplicates. After compound treatment cells were washed with PBS and 500 µl RLT lysis buffer was applied for cell lysis. Lysates were processed for sequencing as described below.
(§6) RNA was additional in solution treated with Turbo DNase (Ambion) for 30 min at 37 °C and repurified over an RNeasy column. First-strand cDNA synthesis was performed with 1 µg total RNA using superscript III reverse transcriptase (Invitrogen) and 120 pmol of a random nanomer primer. […] On order to differentiate different samples 13mer barcodes were introduced between 5′ Ion adapter and target sequence. All processed samples of an experiment were combined within one pool and purified using PCR clean-up kit (Macherey-Nagel).
(§7) Raw sequencing data analyses were done by using BLAST algorithm and in-house developed R scripts.

A further experiment relates to T3, serotonin receptor HTR1A.
T3 construct: ORFs of GPCRs were PCR amplified; HA-Flag signal peptide (N); expressed in transfected cells; host or cells: U2OS
The experiment can be described thus: multiplexed GPCRprofiler assay in U2OS cells. The experiment is classed as cell-based, human. The following applies: multiplexed GPCR assay. The method, then:
as §1, §2, §4, §5, §6, §7

Experiment [2] relates to T4, α-adrenergic receptor ADRA2C.
T4 construct: ORFs of GPCRs were PCR amplified; expressed in transfected cells; host or cells: U2OS
The experiment can be described thus: multiplexed GPCRprofiler assay in U2OS cells. The experiment is classed as cell-based, human. The following applies: for drug-induced effect, GPCRprofiler: Supplementary Table S4, ADRA2C; for antagonistic effect on ADRA2C: U2OS cells, drug 1 h before agonist-mix (1 µM each). How it is done:
as §1, §2, §4, §5, §6, §7

For experiment [3], the system named is HTR2A. The conditions noted are these: cited from earlier work; for drug effect, PubChem: ref PubChem, Supplementary refs 1, 4–6, 8,9.
The next experiment deals with ADRA2B. Set-up: method as in PubChem, Supplementary refs 1, 6, 17. The conditions noted are these: ref PubChem, Supplementary refs 1, 6, 17; cited from earlier work.
A further experiment deals with ADRA2C. Further details: method as in PubChem, Supplementary refs 1, 17. The following applies: ref PubChem, Supplementary refs 1, 17; cited from earlier work.
The subject of another experiment is HRH1. The following applies: cited from earlier work; for drug effect, IUPHAR: ref IUPHAR, Supplementary refs 2,3, 7, 10.
Experiment [4] has as its system HTR2A. The conditions noted are these: GF62 cells; cited from earlier work.
Experiment [5] concerns dopamine and the adrenergic receptors. The following applies: U2OS cells, agonist 100 pM to 100 µM. How it is done: as §1, §2, §3, §5
(§8) RNA was additional in solution treated with Turbo DNase (Ambion) for 30 min at 37 °C and repurified over an RNeasy column. […]

The subject of another experiment is serotonin receptor HTR5A. The following applies: U2OS cells (not in PC12 cells). The method, then:
as §1, §2, §3, §5, §8

The target in experiment [6] is T1, serotonin receptor HTR2A. The conditions noted are these: PC12 cells. How it is done:
as §1, §2
Cells were resuspended in culture medium without antibiotics at a density of 1.5 × 10^6 cells/ml (U2OS) or 3 × 10^6 cells/ml (PC12). […] Transfection-mixes were added to cell suspensions and incubated for 2 h at 37 °C without shaking. Suspensions were centrifuged for 5 min at 900 rpm and resuspended in culture medium to remove transfection reagents. All transfection samples were combined within one pool and plated on multiple wells of 6-well plates and incubated for 24 h at 37 °C. Afterwards, cells were starved for 17–18 h and then treated with compounds for 6 h in duplicates. […]

The target in another experiment is HTR2A serotonin receptor (Homo sapiens, UniProt P28223). The experiment can be described thus: single GPCR split TEV assay, luciferase readout (β-arrestin2 recruitment). The experiment is classed as cell-based. The conditions noted are these: standard single luciferase GPCR split TEV assay, validation (Fig. 4f); read-out: IC50 of HTR2A receptor inhibition. From the text:
(§9) GPCR split TEV assays allow monitoring ligand-dependent GPCR activities using the stimulation-dependent interaction of β-arrestin2 and a candidate GPCR. […] To do this, the NTEV fragment and the artificial transcription factor GAL4-VP16 (GV) were fused to the C-terminal end of a candidate GPCR, separated by a TEV cleavage site (tevS) (Fig. 1a,b). To improve the stability of the interaction between a given GPCR and the arrestin, a short sequence from the C-terminal end of the human arginine vasopressin receptor 2 (AVPR2) (abbreviated V2R) was introduced between a candidate GPCR and NTEV[17],[27]. V2R contains multiple phosphorylation sites for GRKs. These sites provide, when phosphorylated, enhanced binding of β-arrestin.
For these assays, cells were transiently transfected with GPCR split TEV components and reporters, which were allowed to express for 20 h. […] For antagonistic assays, compounds were added 1 h before agonist to ensure proper incubation (Supplementary Fig. S1b). For clarity, varying experimental conditions, such as plate formats, for applied assay formats are summarized in Supplementary Table S3.
For luciferase assays cells were plated on 96-well white plates at 4 × 10^4 cells/well (PC12) one day before the experiment. The assays were performed with 6 wells as replicates per condition. […]

For experiment [7], the target named is T5, dopamine receptor DRD2 (Homo sapiens, UniProt P14416). Kind of experiment: standard single luciferase GPCR split TEV assay. The experiment is classed as cell-based. The conditions noted are these: validation (Fig. 4e), read-out: IC50 of DRD2 receptor inhibition.
T5 sequence (P14416 1-414 isoform P14416-2): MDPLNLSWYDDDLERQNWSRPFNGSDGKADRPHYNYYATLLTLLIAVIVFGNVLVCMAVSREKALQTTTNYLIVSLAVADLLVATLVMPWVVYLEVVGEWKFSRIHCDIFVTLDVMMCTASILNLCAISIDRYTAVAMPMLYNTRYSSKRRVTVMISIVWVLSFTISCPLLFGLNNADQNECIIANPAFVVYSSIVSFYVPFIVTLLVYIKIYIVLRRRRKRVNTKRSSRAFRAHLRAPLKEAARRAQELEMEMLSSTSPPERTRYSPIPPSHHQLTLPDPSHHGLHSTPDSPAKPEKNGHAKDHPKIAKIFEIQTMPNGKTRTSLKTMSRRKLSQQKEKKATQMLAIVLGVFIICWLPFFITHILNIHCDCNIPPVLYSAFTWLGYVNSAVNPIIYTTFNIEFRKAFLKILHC
From the text: as §9
For luciferase assays cells were plated on 96-well white plates at 4 × 10^4 cells/well (PC12) one day before the experiment. The assays were performed with 6 wells as replicates per condition. […] Plasmids and lipofectamine 2000 transfection reagent (Invitrogen) were diluted in opti-MEM (Gibco) and incubated for 20 min at room temperature. Medium was removed from cells, the transfection-mix was added and the plates incubated for 2 h at 37 °C, followed by the adding of double-volume of culture medium to dilute transfection reagents. […]

Experiment [8] has as its target T5, dopamine receptor DRD2. Kind of experiment: multiplexed GPCRprofiler assay in U2OS cells. The experiment is classed as cell-based.
Experiment [9] deals with T6, α-adrenergic receptor ADRA2B.
T6 construct: ORFs of GPCRs were PCR amplified; expressed in transfected cells; host or cells: U2OS (multiplexed assays)
The experiment can be described thus: multiplexed GPCRprofiler assay in U2OS cells. The experiment is classed as cell-based, human. The method, then: as §1, §2, §4, §5, §6, §7

For the next experiment, the system named is DRD2. The conditions noted are these: ref PubChem, Supplementary refs 1, 4,5, 12–14; cited from earlier work.
Where [10] appears, read: U2OS cells, drug 1 h before agonist-mix (1 µM each).

Each structure is given as a SMILES string. Counter-ions that a name gives are not always drawn. Like-named read-outs stand apart in the source and are kept apart here.

T1 sequence (P28223 81-471 limits assumed): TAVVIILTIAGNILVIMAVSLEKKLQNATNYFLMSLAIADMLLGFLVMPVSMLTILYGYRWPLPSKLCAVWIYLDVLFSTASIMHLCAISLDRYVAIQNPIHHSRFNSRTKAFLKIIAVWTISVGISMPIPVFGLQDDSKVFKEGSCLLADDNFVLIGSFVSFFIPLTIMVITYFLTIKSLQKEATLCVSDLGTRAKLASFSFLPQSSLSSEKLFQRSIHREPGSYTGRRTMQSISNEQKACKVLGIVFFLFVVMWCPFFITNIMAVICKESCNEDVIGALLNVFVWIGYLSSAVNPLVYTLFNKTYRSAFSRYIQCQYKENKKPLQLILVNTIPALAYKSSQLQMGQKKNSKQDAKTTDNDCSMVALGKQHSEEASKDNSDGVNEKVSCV
Chain of HTR2A serotonin receptor (P28223 81-471 limits assumed): as above

For the compound `O=C1CCc2ccc(OCCCCN3CCN(c4cccc(Cl)c4Cl)CC3)cc2N1` [Aripiprazole], the “agonistic effect on HTR2A (drug alone)” value at serotonin receptor HTR2A [1] (U2OS cells) is reported as “concentration-dependent agonistic effect”; on serotonin receptor HTR2A [1] (U2OS cells, listed as aripiprazole) it was “subtle agonistic effects”. Also, the “drug-induced effect, GPCRprofiler” value (in the experiment with histamine receptor HRH1; in experiment [2]) was “Antagonist” each time. In addition, the “antagonistic effect on HRH1” value in the experiment with histamine receptor HRH1 is reported as “inhibited”. The “partial agonism on HTR1A” value in the experiment on serotonin receptor HTR1A is on record as “not detected”. Besides, the “antagonistic effect on ADRA2C” value in [2] is recorded as “inhibited”. The “drug effect, PubChem” value in the experiment with HTR2A [3] was “Antagonist”; in the experiment on ADRA2B it was “Antagonist”; in the experiment with ADRA2C, “Antagonist”; in the experiment on HRH1 (ref PubChem, Supplementary refs 1, 4–6, 17) it was “Antagonist”. Moreover, the “drug effect, IUPHAR” value in the experiment with HRH1 is given as “Antagonist”. Also, in the experiment with HTR2A [4], the “effect on HTR2A reported in the literature” value is on record as “weak partial agonistic effect”.
`NCCc1ccc(O)c(O)c1` [Dopamine, Dopamine hydrochloride]: the “activation of HTR2A by non-cognate agonist” value on serotonin receptor HTR2A [1] (U2OS cells) and at serotonin receptor HTR2A [6] was “activation” in each case. For the same compound, the “signals of both receptor subfamilies (dopamine and adrenergic) upon stimulation” value in experiment [5] is “elevated signals”. For the same compound, the “activation of HTR5A by non-cognate agonist” value in the experiment on serotonin receptor HTR5A is “activated by dopamine in U2OS cells only”.
The term IC50 denotes the midpoint of a concentration-inhibition curve. As to `Cc1nc2n(c(=O)c1CCN1CCC(c3noc4cc(F)ccc34)CC1)CCCC2O` (stereo not shown) [Paliperidone], the values for the IC50 at HTR2A serotonin receptor and at dopamine receptor DRD2 [7] were 3.65 nM and 188 nM, respectively. The “drug-induced effect, GPCRprofiler” value on dopamine receptor DRD2 [8] (Supplementary Table S4, DRD2) was “Antagonist”; at serotonin receptor HTR2A [1] (Supplementary Table S4, HTR2A) it was “Antagonist”; in the experiment on histamine receptor HRH1, “Antagonist”; in experiment [9] (Supplementary Table S4, ADRA2B) it was “Antagonist”; in experiment [2], “Antagonist”. On dopamine receptor DRD2 [8] (setting [10]), the “antagonistic effect on DRD2” value was “dose-dependent inhibition of receptor activity”. The “antagonistic effect on HTR2A” value at serotonin receptor HTR2A [1] (setting [10]) was “dose-dependent inhibition of receptor activity”. Further, the “antagonistic effect on HRH1” value in the experiment on histamine receptor HRH1 is listed as “dose-dependent inhibition of receptor activity”. The “antagonistic effect on ADRA2B” value in experiment [9] (setting [10]) is “dose-dependent inhibition of receptor activity”. In addition, the “antagonistic effect on ADRA2C” value in experiment [2] is “dose-dependent inhibition of receptor activity”. Besides, the “drug effect, IUPHAR” value is recorded as “Antagonist” in the experiment on HTR2A [3] (ref IUPHAR, Supplementary refs 2,3, 7, 10,11) and “Antagonist” with HRH1. Also, the “drug effect, PubChem” value in the experiment with HTR2A [3], in the experiment on DRD2 and with ADRA2B was “Antagonist” in each case.
